These results are taken from article PMC11470957, “Principles of paralog-specific targeted protein degradation engaging the C-degron E3 KLHDC2” (Nature Communications, 2024).

One experiment concerns the target T1, KLHDC2^SBD (Homo sapiens, UniProt Q9Y2U9).
T1 sequence (Q9Y2U9 15-361): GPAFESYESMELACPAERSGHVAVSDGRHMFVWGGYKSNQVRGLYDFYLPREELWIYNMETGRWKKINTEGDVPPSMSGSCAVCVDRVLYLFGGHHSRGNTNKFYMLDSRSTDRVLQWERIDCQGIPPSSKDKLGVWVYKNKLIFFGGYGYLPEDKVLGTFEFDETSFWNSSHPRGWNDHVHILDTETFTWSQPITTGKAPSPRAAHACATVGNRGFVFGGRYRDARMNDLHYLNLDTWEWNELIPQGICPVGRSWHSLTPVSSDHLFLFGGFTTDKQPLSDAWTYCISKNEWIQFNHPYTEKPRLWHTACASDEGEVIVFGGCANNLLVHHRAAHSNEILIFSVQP
The experiment is described as follows: Surface plasmon resonance binding to KLHDC2. Details: KLHDC2^SBD (15-361) and its Avi-tagged counterpart were expressed in E. coli Rosetta2 cells; 6XHis-MBP (N, cleaved yes); made in house; host or cells: E. coli Rosetta2. Conditions: for SPR Rmax / SPR dissociation constant kd: n=1; for pKd: read-out: SPR Kd. As for the experimental part:
Surface plasmon resonance (SPR) was utilized to determine kinetic parameters and binding affinity of KLHDC2 substrates using a PioneerFE (Sartorius). Experiments were carried out in 20 mM Tris, 200 mM NaCl, 1 mM TCEP, 0.01% Brij35, and 1% DMSO at pH 7.4 as a running buffer with a 100 µL/min flow rate at 20 °C.
The 10xHis-KLHDC2 was immobilized onto a Ni-NTA-coated biosensor chip (HisCap). The chip surface was conditioned using 10 mM HCl, 50 mM NaOH, and 0.1% SDS (50 µL at 100 µL/min) twice, followed by a 100 mM Tris buffer wash (100 µL at 100 µL/min). The surface was then activated using an injection of 0.5 M EDTA (125 µL at 25 µL/min) followed by an injection of 5 mM NiCl2 (125 µL at 25 µL/min). […] Channel 2 was treated identically to channel 3 except for protein loading to be used as a reference channel. […] 100% of the loop was injected with a 300 s dissociation time. All samples were run in triplicate. Data was analyzed using Qdat software and fit to a simple 1-site model.
The SPR experiments were performed to determine the binding affinities (KD) of KLHDC2-SJ46411 and KLHDC2-SJ46418 complexes. All the experiments were performed using a Biacore 1S+ instrument. […] The running buffer consisted of 20 mM Tris pH 7.5, 200 mM NaCl, 1 mM TCEP, 0.01% Brij35, and 4% DMSO. […] In brief, before the immobilization, the sensor chip surface was conditioned by injecting a mixture of (3:1 v/v) 8 M guanidine hydrochloride and 1 M NaOH at a flow rate of 5 μL/min for 2 min for two times. Then, running buffer was injected at a 30 μl/min flow rate for 1 min 3 times. Next, the Biotin CAPture reagent was injected at a flow rate of 2 μl/min for 5 min. Then, biotinylated KLHDC2 was only injected onto the active channel (channel 2).
Sample preparation was carried out precisely the same as SJ46411. All experiments were performed using a multi-cycle analysis method with a 30 μl/min flow rate, 120 S association, and 240 s dissociation time. All data were reference subtracted and corrected for DMSO mismatch. The sensorgrams were analyzed using Biacore insight evaluation software, and KD was determined using the 1:1 steady-state affinity fitting. Finally, all the analyzed data was replotted using GraphPad Prizm 10 software.
A general note: SPR reads the build-up and loss of mass on a sensor chip optically.

Experiment [1] has as its system BRD proteins in U2OS KO/rescue lysate. The experiment is described as follows: Degradation in non-denaturing lysates of U2OS KO/rescue cells. Conditions: non-denaturing U2OS KO/rescue lysate 4mg/ml, 10 µM, 30° C.

pKd: −log10 of the molar value. “And” between values parts separate entries of the source, which are not always exact repeats. Equal entries are not always repeated.

Broadly, the pKd is −log10 of the Kd, conventionally taken in molar units. Regarding `O=C(O)CNC(=O)Cc1csc(-c2ccccc2F)n1` [SJ6145], on KLHDC2^SBD, the “SPR Rmax” value was 8.25 +/- 0.01, the “SPR dissociation constant kd” value was determined as 4.19 s⁻¹ and the pKd was 4.77.
In the case of `COCOc1ccc(-c2nc(CC(=O)NCC(=O)O)cs2)c(Cl)c1` [SJ10278], at KLHDC2^SBD, the “SPR Rmax” value is 11.33 +/- 0.02, the “SPR dissociation constant kd” value was determined as 2.03 s⁻¹ and the pKd was 5.06.
As for `O=C(O)CNC(=O)Cc1csc(-c2ccc3ccccc3c2)n1` [SJ46411], the “SPR Response” value was found to be 4.647 RU at KLHDC2^SBD (FigS2d, analyte 0.146484 μM); 7.784 RU at KLHDC2^SBD (FigS2d, analyte 0.292969 μM); 11.5982 RU at KLHDC2^SBD (FigS2d, analyte 0.585938 μM); 17.8875 RU at KLHDC2^SBD (FigS2d, analyte 2.34375 μM); 19.5092 RU on KLHDC2^SBD (FigS2d, analyte 4.6875 μM); 20.5795 RU at KLHDC2^SBD (FigS2d, analyte 9.375 μM). Also, the “SPR Rmax” value at KLHDC2^SBD is reported as 24.50 +/- 0.30. Moreover, the pKd on KLHDC2^SBD was 6.30 and 6.28.
With `COCCOc1cccc2ccc(-c3nc(CC(=O)NCC(=O)O)cs3)cc12` [SJ46418], the “Raw SPR response” value came out at 0.0989 on KLHDC2^SBD (0.0976562 uM, time -29 s); 0.1275 on KLHDC2^SBD (0.0976562 uM, time -29.1 s); 0.1501 at KLHDC2^SBD (0.0976562 uM, time -29.2 s); 0.2497 at KLHDC2^SBD (0.0976562 uM, time -29.3 s); 0.0952 on KLHDC2^SBD (0.195312 uM, time -29 s); 0.1196 at KLHDC2^SBD (0.195312 uM, time -29.1 s). Besides, the “Raw SPR response” value at KLHDC2^SBD (0.195312 uM, time -29.2 s) is 0.1572; at KLHDC2^SBD (0.195312 uM, time -29.3 s), 0.2514; at KLHDC2^SBD (0.390625 uM, time -29 s) it was 0.1406; on KLHDC2^SBD (0.390625 uM, time -29.1 s), 0.1812; at KLHDC2^SBD (0.390625 uM, time -29.2 s) it was 0.2616; at KLHDC2^SBD (0.390625 uM, time -29.3 s), 0.3693. For the same molecule, the “Raw SPR response” value was 0.1584 at KLHDC2^SBD (0.78125 uM, time -29 s); 0.1946 at KLHDC2^SBD (0.78125 uM, time -29.1 s); 0.2669 at KLHDC2^SBD (0.78125 uM, time -29.2 s); 0.3893 at KLHDC2^SBD (0.78125 uM, time -29.3 s); 0.1505 at KLHDC2^SBD (1.5625 uM, time -29 s); 0.1878 on KLHDC2^SBD (1.5625 uM, time -29.1 s). Moreover, the “Raw SPR response” value is recorded as 0.2713 on KLHDC2^SBD (1.5625 uM, time -29.2 s); 0.3827 on KLHDC2^SBD (1.5625 uM, time -29.3 s); 0.1726 on KLHDC2^SBD (2.34375 uM, time -29 s); 0.2365 at KLHDC2^SBD (2.34375 uM, time -29.1 s); 0.3258 at KLHDC2^SBD (2.34375 uM, time -29.2 s); 0.5246 at KLHDC2^SBD (2.34375 uM, time -29.3 s). The “Raw SPR response” value at KLHDC2^SBD (3.125 uM, time -29 s) is listed as 0.1584; on KLHDC2^SBD (3.125 uM, time -29.1 s), 0.2098; at KLHDC2^SBD (3.125 uM, time -29.2 s), 0.2855; on KLHDC2^SBD (3.125 uM, time -29.3 s), 0.3398; at KLHDC2^SBD (4.6875 uM, time -29 s), 0.1506; on KLHDC2^SBD (4.6875 uM, time -29.1 s) it was 0.2195. Further, the “Raw SPR response” value worked out at 0.3095 on KLHDC2^SBD (4.6875 uM, time -29.2 s); 0.4038 at KLHDC2^SBD (4.6875 uM, time -29.3 s); 0.1017 on KLHDC2^SBD (12.5 uM, time -29 s); 0.1107 at KLHDC2^SBD (12.5 uM, time -29.1 s); 0.1281 at KLHDC2^SBD (12.5 uM, time -29.2 s); 0.1417 at KLHDC2^SBD (12.5 uM, time -29.3 s). In addition, the “Raw SPR data, fit” value is -0.002337 at KLHDC2^SBD (0.09765625 Fit, time -29 s); -0.002345 on KLHDC2^SBD (0.09765625 Fit, time -29.1 s); -0.002354 on KLHDC2^SBD (0.09765625 Fit, time -29.2 s); -0.002362 at KLHDC2^SBD (0.09765625 Fit, time -29.3 s); 0.003849 at KLHDC2^SBD (0.1953125Fit uM, time -29 s); 0.003863 on KLHDC2^SBD (0.1953125Fit uM, time -29.1 s). In addition, the “Raw SPR data, fit” value on KLHDC2^SBD (0.1953125Fit uM, time -29.2 s) is 0.003876; on KLHDC2^SBD (0.1953125Fit uM, time -29.3 s), 0.003889; on KLHDC2^SBD (0.390625fit, time -29 s), 0.007264; at KLHDC2^SBD (0.390625fit, time -29.1 s) it was 0.007289; on KLHDC2^SBD (0.390625fit, time -29.2 s) it was 0.007315; on KLHDC2^SBD (0.390625fit, time -29.3 s) it was 0.00734. Also, the “Raw SPR data, fit” value on KLHDC2^SBD (0.78125 fit, time -29 s) is given as 0.01901; at KLHDC2^SBD (0.78125 fit, time -29.1 s), 0.01908; at KLHDC2^SBD (0.78125 fit, time -29.2 s), 0.01915; on KLHDC2^SBD (0.78125 fit, time -29.3 s) it was 0.01921; at KLHDC2^SBD (1.5625 fit, time -29 s), 0.01693; at KLHDC2^SBD (1.5625 fit, time -29.1 s), 0.01699. Also, the “Raw SPR data, fit” value was found to be 0.01704 on KLHDC2^SBD (1.5625 fit, time -29.2 s); 0.0171 at KLHDC2^SBD (1.5625 fit, time -29.3 s); 0.02325 on KLHDC2^SBD (2.34375fit, time -29 s); 0.02333 at KLHDC2^SBD (2.34375fit, time -29.1 s); 0.02341 at KLHDC2^SBD (2.34375fit, time -29.2 s); 0.0235 at KLHDC2^SBD (2.34375fit, time -29.3 s). Besides, the “Raw SPR data, fit” value on KLHDC2^SBD (3.125 fit, time -29 s) came to 0.02052; at KLHDC2^SBD (3.125 fit, time -29.1 s), 0.02059; on KLHDC2^SBD (3.125 fit, time -29.2 s), 0.02066; on KLHDC2^SBD (3.125 fit, time -29.3 s) it was 0.02074; at KLHDC2^SBD (4.6875 fit, time -29 s), 0.02316; at KLHDC2^SBD (4.6875 fit, time -29.1 s), 0.02324. The “Raw SPR data, fit” value on KLHDC2^SBD (4.6875 fit, time -29.2 s) is listed as 0.02332; at KLHDC2^SBD (4.6875 fit, time -29.3 s), 0.0234; on KLHDC2^SBD (12.5 fit, time -29 s), 0.01922; on KLHDC2^SBD (12.5 fit, time -29.1 s), 0.01929; at KLHDC2^SBD (12.5 fit, time -29.2 s), 0.01935; on KLHDC2^SBD (12.5 fit, time -29.3 s), 0.01942. In addition, the “SPR Response” value is on record as 0.48 RU at KLHDC2^SBD (FigS3d, analyte 0.0977 μM); 0.7348 RU on KLHDC2^SBD (FigS3d, analyte 0.195 μM); 1.4491 RU on KLHDC2^SBD (FigS3d, analyte 0.391 μM); 2.3401 RU at KLHDC2^SBD (FigS3d, analyte 0.781 μM); 3.3797 RU at KLHDC2^SBD (FigS3d, analyte 1.56 μM); 3.8756 RU at KLHDC2^SBD (FigS3d, analyte 2.34 μM). Besides, the “SPR Response” value is given as 4.4852 RU on KLHDC2^SBD (FigS3d, analyte 4.69 μM) and 5.3052 RU at KLHDC2^SBD (FigS3d, analyte 12.5 μM). For the same molecule, the “SPR Rmax” value at KLHDC2^SBD is reported as 5.70 +/- 0.20. In addition, the pKd at KLHDC2^SBD was 6.00 and 6.01.
In the case of `COC(=O)CNC(=O)Cc1csc(-c2ccc3cccc(OCCN4CCN(C(=O)C[C@@H]5N=C(c6ccc(Cl)cc6)c6c(sc(C)c6C)-n6c(C)nnc65)CC4)c3c2)n1` [SJ46420], the “degrader dependent decrease in BRD protein levels in lysate” value in experiment [1] is recorded as “did not observe a degrader dependent decrease”.
